Assay results taken from US12226405B2, “Compounds and compositions for inhibiting the activity of HIF2-alpha and their methods of use” (Novartis AG, priority 2020, dated 2025).

Columns and labels:
[1] = system: HIF2α-dependent transcription in 786-O-HRE-Luc cells; assay: In vitro cellular hypoxia response element (HRE) reporter gene assay (RGA) for HIF2α; format: cell-based, human; conditions: 24 hours incubation
Description: (§1) Stock solutions of compounds were prepared at a concentration of 10 mM in DMSO and stored at 4° C. Where necessary to afford a full dose-response curve, the stock solutions were pre-diluted in DMSO to 1,000-fold the desired reduced start concentration. On the day after cell seeding, eleven 2-fold serial dilutions of each compound were dispensed directly into the cell assay plates using either HP 300D non-contact Digital Dispenser (TECAN) or a ATS100 acoustic dispenser (EDC Biosystems).
The ability of compounds to inhibit HIF2α- and HIF1α-dependent transcription was assessed in 786-O-HRE-Luc and RCC4-HRE-Luc cells, respectively. The putative unselective inhibition of firefly luciferase activity or expression was assessed in 786-O-UB6-Luc and RCC4-UB6-Luc cells, respectively. The reporter lines were generated as follows: 786-O (RRID: CVCL_1051) and RCC4 (RRID: CVCL_0498) clear cell renal carcinoma cell lines were obtained from ATCC and Celeste Simon (University of Pennsylvania), respectively. Either cell line was transduced with a lentiviral vector in which the expression of a PEST-destabilized version of firefly-luciferase is under the control of either a minimal promoter coupled to four copies of a minimal hypoxia response element (HRE) sequence (pLenti 4×HRE Luc PEST), or a promoter from the house-keeping UBC gene (pLenti UB6 Luc PEST). In short, for the construction of the pLenti 4×HRE Luc PEST vector, 4×HRE DNA oligonucleotides were synthesized, annealed and cloned into pGL4.27 plasmid vector (Promega) predigested with NheI and HindIII restriction enzymes. The sequence of the two DNA oligonucleotides was as follows: NheI 4×HRE HindIII FWD: […] (SEQ ID NO: 8); NheI 4×HRE HindIII REV […] (SEQ ID NO: 9). The 4×HRE Luc PEST fragment was then PCRed from this plasmid with restriction enzyme sites NheI and XhoI at the two ends, and inserted into pLenti6/BLOCK iT DEST (Thermo Fisher Scientific) predigested with NheI and XhoI restriction enzymes. For the construction of the pLenti UB6 Luc PEST vector, the Luc PEST sequence was PCRed from pGL4.27 (Promega) using EcoRV and XhoI restriction enzymes at the two ends, and inserted into pLenti6/UBC/V5/DEST (Thermo Fisher Scientific) predigested with the same enzymes. 786-O and RCC4 cells (300,000 per well of a 6 well plate) were infected in the presence of 10 μg/ml polybrene with lentivirus harvested two days after transfection of HEK293-FT (ThermoFisher Scientific #R70007) cells (80% confluent in a 100 cm^2 dish) with a mix of 1.5 ml OptiMEM (ThermoFisher Scientific #31985062) containing 3 μg of the desired plasmids and 9 μl of ViralPower Packaging mix (ThermoFisher Scientific #K497500), and 1.5 ml OptiMEM containing 36 μl Lipofectamine 2000 (ThermoFisher Scientific #11668019). Successfully infected cells were selected using blasticidin (Gibco #A11139-03) at a final concentration of 5 μg/ml. The resulting stable cell lines were named 786-O pLenti 4×HRE Luc PEST (short: 786-O-HRE-Luc), 786-O pLenti UB6 Luc PEST (short: 786-O-UB6-Luc), RCC4 pLenti 4×HRE Luc PEST (short: RCC4-HRE-Luc) and RCC4 pLenti UB6 Luc PEST (short: RCC4-UB6-Luc). All 4 cell lines were maintained in growth medium composed of DMEM (GIBCO #11995-065), 2 mM L-Glutamine (BioConcept #5-10K50-H), 10% fetal calf serum (Gibco #A31608-01), 1× Penicillin/Streptomycin (BioConcept #4-01F00-H), 1 mM Sodium pyruvate (BioConcept #5-60F00-H) and 5 μg/ml blasticidin (Gibco #A11139-03) at 37° C. in a humidified 5% CO2 incubator.
For the reporter gene assay, the individual cell lines were seeded at 2,500 cells/20 μL/well into white-wall, clear-bottom 384-well plates (Greiner #781098) and incubated over night at 37° C. prior to addition of serial compound dilutions as described above. […]

[2] = biological target: HIF2α PAS-B domain (236-350, biotinylated on the N-terminus) (Homo sapiens (Human), UniProt Q99814)
Sequence of HIF2α PAS-B domain (236-350, biotinylated on the N-terminus) (Q99814 236-350): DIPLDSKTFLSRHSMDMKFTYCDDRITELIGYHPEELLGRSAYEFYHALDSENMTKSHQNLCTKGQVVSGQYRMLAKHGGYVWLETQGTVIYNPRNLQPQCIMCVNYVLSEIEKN
Description: The assay buffer contained 50 mM Tris-HCl pH7 (Sigma), 20 mM NaCl (Fluka), 0.02% BSA (Sigma), 0.005% Triton X-100 (Pierce) and 1 mM DTT (Fluka). After a 30 min incubation period, 5 μL Streptavidin PVT SPA Beads (Perkin Elmer) at 1.2 mg/mL, diluted in the buffer, were added.

[3] = system: HIF2α-regulated expression of the endogenous target gene hEGLN3 in 786-O cells; assay: Cellular iScript assay for HIF2α (quantitative RT-PCR of hEGLN3); format: cell-based, human
Description: as §1
Compound-mediated modulation of the HIF2α-regulated expression of the endogenous target gene hEGLN3 (OMIM: 606426), as well as beta-actin (OMIM: 102630) as a house-keeping control, was assess in 786-O cells (RRID CVCL_1051) using a quantitative RT-PCR approach. In short, 786-O cells were maintained in growth medium composed of DMEM (GIBCO #11995-065), 2 mM L-Glutamine (BioConcept #5-10K50-H), 1× Penicillin/Streptomycin (BioConcept #4-01F00-H), 10% fetal calf serum (Gibco #A31608-01), 1 mM Sodium pyruvate (BioConcept #5-60F00-H). Cells were seeded at 1,000 cells/20 μL/well into white-wall, clear-bottom 384-well plates (Greiner #781098) and incubated over night at 37° C. prior to addition of serial compound dilutions as described above. Following incubation for 48 hours at 37° C., medium supernatant was discarded and the plate blotted dry by inverting on a tissue. The same procedure was repeated following one wash with 20 μL phosphate-buffered saline. Following addition of 25 μL/well iScript sample preparation reagent (BioRad #170-8899) using a 16-channel Matrix pipette, the plate was incubated for 2 min at room temperature. 20 μL lysate supernatant was then removed and transferred to a new 384 well plate (Costar #3656) and diluted 1:3 by adding 5 μL of the lysate to 10 μL H2O using a Bravo liquid handler (Agilent). 2 μL of the diluted lysate was added to the 8 μL of a mastermix containing 5 μL iTaq Universal Probes One-step kit (BioRad #172-5141), 0.25 μL iScript reverse transcription supermix (BioRad #1708840), 0.25 μL 40×HEX-ZEN-labeled TaqMan probe for beta-actin (IDT #Hs.PT.39a.22214847: Probe 5′ HEX-TCA TCC ATG/ZEN/GTG AGC TGG CGG-3′ (SEQ ID NO: 2) Iowa Black FQ, Primer 1: ACA GAG CCT CGC CTT TG (SEQ ID NO: 3); Primer 2: CCT TGC ACA TGC CGG (SEQ ID NO: 4) AG), 0.25 μL, 40×FAM-ZEN-labeled TaqMan probe for hEGLN3 (IDT #Hs.PT.58.189348: Probe 5′ 6-FAM-TTT GGC TTC/ZEN/TGC CCT TTC TTC AGC-3′ (SEQ ID NO: 5) Iowa Black FQ, Primer 1: CACGGTCAGTCTTCAGTGAG (SEQ ID NO: 6); Primer 2: CGCAACCAGATATGCTATGACT (SEQ ID NO: 7)), 2.25 μL RNase-free water, prelaid in a 384 well plate (ABI #4309849) using a 16-channel Matrix pipette. The plate was sealed with a PCR-compatible optical film (MicroAmp, ABI #4360954) and centrifuged (1500 rpm, 5 min, +4° C.) to collect all reagents in the bottom of the well and to remove bubbles. The plate content was amplified on a 7900HT thermal cycler (ABI) using the following conditions: Step 1: 50° C. for 10 min, Step 2: 95° C. for 3 min, Step 3 (40×): 95° C. for 15 s, 60° C. for 1 min. ROX (reaction volume 10 μL) was used as a passive reference. Data were collected with manual adjustment of the Ct threshold (beta-actin: 0.046, hEGLN3: 0.06) and were analyzed using the 2^(−ΔΔCt) method. Thus, for each sample, the following values were calculated: 2^(−Ct)a for beta-actin, 2^(−Ct)e for EGLN3, and 2^(−ΔCt) calculated as (2^(−Ct)e/2^(−Ct)a). The mean 2^(−ΔCt) as well as the corresponding standard deviation was calculated for each sample. Taking the DMSO-treated sample as a reference, the 2^(−ΔΔCt) for each sample was calculated as follows: 2^(−ΔΔCt)=2^(−ΔCt)sample/(2^(−ΔCt)DMSO). After calculating differential expression as 2^(−ΔΔCt) for each sample, it was then expressed as a percentage (×100) to obtain a dose-response curve in % of DMSO control and IC50s were calculated using a four-parametric fit model.

[4] = Homo sapiens, 786-0, 48 hours incubation

Compound | IC50 ([1]; Homo sapiens) [nM] | IC50 [2] [nM] | IC50 [3, 4] [nM] | IC50 [1] [nM] | IC50 ([3]; 48 hours incubation) [nM]
Fc1c(Br)ccc2c1CCC[C@@]21CN2C=C(C(F)(F)F)C=C(Cl)C2=N1 [Example 16, (S)-6′-bromo-8-chloro-5′-fluoro-6-(trifluoromethyl)-3′,4′-dihydro-2′H,3H-spiro[imidazo[1,2-a]pyridine-2,1′-naphthalene]] | 372 | ≤ 6 | 43 | – | –
O=C1c2c(ccc(Br)c2F)[C@]2(CN3C=C(C(F)(F)F)C=C(OC(F)F)C3=N2)CC1(F)F [Example 17, (S)-6′-bromo-8-(difluoromethoxy)-3′,3′,5′-trifluoro-6-(trifluoromethyl)-2′H,3H-spiro[imidazo[1,2-a]pyridine-2,1′-naphthalen]-4′(3′H)-one] | 466 | 62 | 199 | – | –
O=C1c2c(F)cccc2[C@@]2(C[C@@H]1F)CN1C=C(C(F)(F)F)C=C(OC(F)F)C1=N2 [Example 21] | – | 36 | – | 1100 | 121
N#Cc1ccc2c(c1F)CCC[C@@]21CN2C=C(C(F)(F)F)C=C(OC(F)F)C2=N1 [Example 22, (S)-8-(difluoromethoxy)-5′-fluoro-6-(trifluoromethyl)-3′,4′-dihydro-2′H,3H-spiro[imidazo[1,2-a]pyridine-2,1′-naphthalene]-6′-carbonitrile] | 185 | 8 | 37 | – | –
Fc1cccc2c1C(F)(F)CC[C@@]21CN2C=C(C(F)(F)F)C=C(OC(F)F)C2=N1 [Example 23, (S)-8-(difluoromethoxy)-4′,4′,5′-trifluoro-6-(trifluoromethyl)-3′,4′-dihydro-2′H,3H-spiro[imidazo[1,2-a]pyridine-2,1′-naphthalene]] | 92 | 4 | 30 | – | –
N#Cc1ccc2c(c1F)[C@@H](F)CC[C@@]21CN2C=C(C(F)(F)F)C=C(OC(F)F)C2=N1 [Example 25, (1′S,4'S)-8-(difluoromethoxy)-4′,5′-difluoro-6-(trifluoromethyl)-3′,4′-dihydro-2′H,3H-spiro[imidazo[1,2-a]pyridine-2,1′-naphthalene]-6′-carbonitrile] | 202 | 19 | 83 | – | –
N#CC1=CN2C[C@@]3(CCCc4c(F)cccc43)N=C2C(OC(F)F)=C1 [Example 26, (S)-8-(difluoromethoxy)-5′-fluoro-3′,4′-dihydro-2′H,3H-spiro[imidazo[1,2-a]pyridine-2,1′-naphthalene]-6-carbonitrile] | 144 | ≤ 6 | 34 | – | –
[2H]C1([2H])CC[C@@]2(CN3C=C(C#N)C=C(OC(F)F)C3=N2)c2cccc(F)c21 [Example 27, d2-(S)-8-(difluoromethoxy)-5′-fluoro-3′,4′-dihydro-2′H,3H-spiro[imidazo[1,2-a]pyridine-2,1′-naphthalene]-6-carbonitrile] | 188 | 12 | 102 | – | –
Fc1cccc2c1CCC[C@@]21CN2C=C(C(F)(F)F)C=C(OC(F)F)C2=N1 [Example 28, (S)-8-(difluoromethoxy)-5′-fluoro-6-(trifluoromethyl)-3′,4′-dihydro-2′H,3H-spiro[imidazo[1,2-a]pyridine-2,1′-naphthalene]] | 169 | 5 | 66 | – | –
FC1=CC(C(F)(F)F)=CN2C[C@@]3(CCCc4c3ccc(F)c4F)N=C12 [Example 29, (S)-5′,6′,8-trifluoro-6-(trifluoromethyl)-3′,4′-dihydro-2′H,3H-spiro[imidazo[1,2-a]pyridine-2,1′-naphthalene]] | 1310 | 8 | 93 | – | –
COC1=CC(C(F)(F)F)=CN2C[C@@]3(CCC(F)(F)c4c3ccnc4Cl)N=C12 [Example 30, (S)-1′-chloro-8′,8′-difluoro-8-methoxy-6-(trifluoromethyl)-7′,8′-dihydro-3H,6′H-spiro[imidazo[1,2-a]pyridine-2,5′-isoquinoline]] | 1350 | 27 | 129 | – | –
